Results from patent US20220331303A1, “USE OF AN OREXIN 2 RECEPTOR AGONIST FOR THE TREATMENT OF EXCESSIVE SLEEPINESS” (Takeda Pharmaceutical Company Limited, priority 2019, published 2022).
“Also recorded” adds a separate entry of the source. Read-outs that look alike come from different tables or passages of the source.

Assay: Plasma PK of Compound A after a single 9-hour IV infusion in sleep-deprived healthy male subjects
Type: in vivo, human
Settings: for concentration at 3 h: 3 h post infusion end
Procedure: This was a phase 1b, single-center, randomized, double-blind, double-dummy, placebo- and active-controlled, 4-period Williams design crossover study to evaluate the PK, PD, and safety of Compound A in sleep-deprived healthy volunteers. Compound A was administered as a 9-hour IV infusion.
Healthy adult male subjects aged 18 to 40 years, inclusive, who satisfied the inclusion and exclusion criteria were enrolled in the trial. On Day 1 of treatment period 1, eligible subjects were equally randomized to 4 treatment sequence groups (sequence 1 to 4) which defined the order of administration for Compound A LD, Compound A HD (both delivered as a 9-hour IV infusion), modafinil 300 mg, and placebo.
During the day before dosing on Day 1, participants were administered the KSS at scheduled timepoints. A practice MWT session was performed on Day 1 treatment period 1 (only once during the entire study) to familiarize subjects with the procedures. Study drug was administered in the clinic in the evening on Day 1 of each treatment period. Subjects underwent the MWT and KSS at specified timepoints after the start of the infusion. Subjects were required to stay awake between the MWT tests. Following completion of the IV infusion on Day 2, subjects underwent an additional MWT test. When the final MWT test and cognitive testing were completed, subjects were allowed to sleep (recovery sleep) for approximately 6 hours. PSG recording was collected during this time. Subjects were discharged from the unit after completion on Day 2 with continuing actigraphy upon discharge (to begin on Day −6 before the next treatment period). The interval between each subsequent treatment period was at least 7 days to ensure that the subject's circadian rhythm had returned to a normal cycle. Subject's vital signs, including BP, were monitored during the dosing and testing period. Blood samples for determination of Compound A plasma concentrations were collected at specified timepoints on Days 1 and 2 of each treatment period. Subjects completed the Columbia-Suicide Severity Rating Scale (C-SSRS) during screening, before study drug administration, and before discharge on Day 2 of each treatment period.
Plasma concentrations were tabulated, and descriptive statistics were calculated for each Compound A dose level and are listed in Tables 3-6 for Compound A. The mean plasma concentration versus time plots for Compound A are shown in FIG. 1.

[1] = 2.55-fold increase in dose (44 to 112 mg)

Fold increase in AUClast [1]: 2.45 fold
Fold increase in AUC∞ [1]: 2.46 fold
Fold increase in Ceoi [1]: 2.45 fold
Fold increase in Cmax [1]: 2.52 fold
Mean plasma concentration as share of the observed maximum concentration (by 4 hours after start of infusion, 44 mg and 112 mg): more than 80%
concentration at 1 h (male, human, plasma, iv, 44 mg, 44 mg 9-h IV infusion, 1 h post infusion start, read-out: Plasma concentration (GM)): 63.1 ng/mL
concentration at 1 h (male, human, plasma, iv, 44 mg, 44 mg 9-h IV infusion, 1 h post infusion start, read-out: Plasma concentration (Mean)): 64.4 ng/mL
concentration at 1 h (male, human, plasma, iv, 44 mg, 44 mg 9-h IV infusion, 1 h post infusion start, read-out: Plasma concentration (Median)): 65.5 ng/mL
concentration at 2 h (male, human, plasma, iv, 44 mg, 44 mg 9-h IV infusion, 2 h post infusion start, read-out: Plasma concentration (GM)): 72.9 ng/mL
concentration at 2 h (male, human, plasma, iv, 44 mg, 44 mg 9-h IV infusion, 2 h post infusion start, read-out: Plasma concentration (Mean)): 74 ng/mL
concentration at 2 h (male, human, plasma, iv, 44 mg, 44 mg 9-h IV infusion, 2 h post infusion start, read-out: Plasma concentration (Median)): 72.6 ng/mL
concentration at 4 h (male, human, plasma, iv, 44 mg, 44 mg 9-h IV infusion, 4 h post infusion start, read-out: Plasma concentration (GM)): 88.3 ng/mL
concentration at 4 h (male, human, plasma, iv, 44 mg, 44 mg 9-h IV infusion, 4 h post infusion start, read-out: Plasma concentration (Mean)): 89.3 ng/mL
concentration at 4 h (male, human, plasma, iv, 44 mg, 44 mg 9-h IV infusion, 4 h post infusion start, read-out: Plasma concentration (Median)): 88.2 ng/mL
concentration at 6 h (male, human, plasma, iv, 44 mg, 44 mg 9-h IV infusion, 6 h post infusion start, read-out: Plasma concentration (GM)): 97.8 ng/mL
concentration at 6 h (male, human, plasma, iv, 44 mg, 44 mg 9-h IV infusion, 6 h post infusion start, read-out: Plasma concentration (Mean)): 98.7 ng/mL
concentration at 6 h (male, human, plasma, iv, 44 mg, 44 mg 9-h IV infusion, 6 h post infusion start, read-out: Plasma concentration (Median)): 97.4 ng/mL
concentration at 9 h (male, human, plasma, iv, 44 mg, 44 mg 9-h IV infusion, 9 h post infusion start, read-out: Plasma concentration (GM)): 102 ng/mL
concentration at 9 h (male, human, plasma, iv, 44 mg, 44 mg 9-h IV infusion, 9 h post infusion start, read-out: Plasma concentration (Mean)): 103 ng/mL
concentration at 9 h (male, human, plasma, iv, 44 mg, 44 mg 9-h IV infusion, 9 h post infusion start, read-out: Plasma concentration (Median)): 101 ng/mL
AUC(0-t) (male, human, plasma, iv, 44 mg, 44 mg [LD] single 9-hour IV infusion, read-out: AUClast (GM)): 933 ng·h/mL
AUC(0-t) (male, human, plasma, iv, 44 mg, 44 mg [LD] single 9-hour IV infusion, read-out: AUClast (Mean)): 940 ng·h/mL
AUC(0-t) (male, human, plasma, iv, 44 mg, 44 mg [LD] single 9-hour IV infusion, read-out: AUClast (Median)): 888 ng·h/mL
AUC(0-inf) (male, human, plasma, iv, 44 mg, 44 mg [LD] single 9-hour IV infusion, read-out: AUC∞ (GM)): 955 ng·h/mL
AUC(0-inf) (male, human, plasma, iv, 44 mg, 44 mg [LD] single 9-hour IV infusion, read-out: AUC∞ (Mean)): 964 ng·h/mL
AUC(0-inf) (male, human, plasma, iv, 44 mg, 44 mg [LD] single 9-hour IV infusion, read-out: AUC∞ (Median)): 911 ng·h/mL
clearance (male, human, plasma, iv, 44 mg, 44 mg [LD] single 9-hour IV infusion, read-out: CL (Mean) (converted)): 773 mL/min
clearance (male, human, plasma, iv, 44 mg, 44 mg [LD] single 9-hour IV infusion, read-out: CL (Median) (converted)): 805 mL/min
Cmax (male, human, plasma, iv, 44 mg, 44 mg [LD] single 9-hour IV infusion, read-out: Cmax (GM)): 106 ng/mL
Cmax (male, human, plasma, iv, 44 mg, 44 mg [LD] single 9-hour IV infusion, read-out: Cmax (Mean)): 106 ng/mL
Cmax (male, human, plasma, iv, 44 mg, 44 mg [LD] single 9-hour IV infusion, read-out: Cmax (Median)): 102 ng/mL
Vd (male, human, plasma, iv, 44 mg, 44 mg [LD] single 9-hour IV infusion, read-out: Vss (Mean)): 107 L
Vd (male, human, plasma, iv, 44 mg, 44 mg [LD] single 9-hour IV infusion, read-out: Vss (Median)): 99.2 L
Vd (male, human, plasma, iv, 44 mg, 44 mg [LD] single 9-hour IV infusion, read-out: Vz (Mean)): 207 L
Vd (male, human, plasma, iv, 44 mg, 44 mg [LD] single 9-hour IV infusion, read-out: Vz (Median)): 211 L
Tmax (male, human, plasma, iv, 44 mg, 44 mg [LD] single 9-hour IV infusion, read-out: tmax (Mean)): 8.15 h
Tmax (male, human, plasma, iv, 44 mg, 44 mg [LD] single 9-hour IV infusion, read-out: tmax (Median)): 9 h
concentration at 0.17 h (male, human, plasma, iv, 112 mg, 112 mg 9-h IV infusion, 0.17 h post infusion end, read-out: Plasma concentration (GM)): 194 ng/mL
concentration at 0.5 h (male, human, plasma, iv, 112 mg, 112 mg 9-h IV infusion, 0.5 h post infusion end, read-out: Plasma concentration (GM)): 122 ng/mL
concentration at 1 h (male, human, plasma, iv, 112 mg, 112 mg 9-h IV infusion, 1 h post infusion end, read-out: Plasma concentration (GM)): 97.5 ng/mL
concentration at 2 h (male, human, plasma, iv, 112 mg, 112 mg 9-h IV infusion, 2 h post infusion end, read-out: Plasma concentration (GM)): 56.7 ng/mL
concentration at 3 h (male, human, plasma, iv, 112 mg, 112 mg 9-h IV infusion, read-out: Plasma concentration (GM)): 50.8 ng/mL
concentration at 3 h (male, human, plasma, iv, 112 mg, 112 mg 9-h IV infusion, read-out: Plasma concentration (Median)): 54 ng/mL
concentration at 4 h (male, human, plasma, iv, 112 mg, 112 mg 9-h IV infusion, 4 h post infusion end, read-out: Plasma concentration (GM)): 40.4 ng/mL
concentration at 4 h (male, human, plasma, iv, 112 mg, 112 mg 9-h IV infusion, 4 h post infusion end, read-out: Plasma concentration (Median)): 44.7 ng/mL
concentration at 6 h (male, human, plasma, iv, 112 mg, 112 mg 9-h IV infusion, 6 h post infusion end, read-out: Plasma concentration (GM)): 23.6 ng/mL
concentration at 6 h (male, human, plasma, iv, 112 mg, 112 mg 9-h IV infusion, 6 h post infusion end, read-out: Plasma concentration (Median)): 23.4 ng/mL
concentration at 9 h (male, human, plasma, iv, 112 mg, 112 mg 9-h IV infusion, 9 h post infusion end, read-out: Plasma concentration (GM)): 13 ng/mL
concentration at 9 h (male, human, plasma, iv, 112 mg, 112 mg 9-h IV infusion, 9 h post infusion end, read-out: Plasma concentration (Median)): 11.9 ng/mL
AUC(0-t) (male, human, plasma, iv, 112 mg, 112 mg [HD] single 9-hour IV infusion, read-out: AUClast (GM)): 2300 ng·h/mL
AUC(0-t) (male, human, plasma, iv, 112 mg, 112 mg [HD] single 9-hour IV infusion, read-out: AUClast (Mean)): 2300 ng·h/mL
AUC(0-t) (male, human, plasma, iv, 112 mg, 112 mg [HD] single 9-hour IV infusion, read-out: AUClast (Median)): 2300 ng·h/mL
AUC(0-inf) (male, human, plasma, iv, 112 mg, 112 mg [HD] single 9-hour IV infusion, read-out: AUC∞ (GM)): 2360 ng·h/mL
AUC(0-inf) (male, human, plasma, iv, 112 mg, 112 mg [HD] single 9-hour IV infusion, read-out: AUC∞ (Mean)): 2370 ng·h/mL
AUC(0-inf) (male, human, plasma, iv, 112 mg, 112 mg [HD] single 9-hour IV infusion, read-out: AUC∞ (Median)): 2380 ng·h/mL
clearance (male, human, plasma, iv, 112 mg, 112 mg [HD] single 9-hour IV infusion, read-out: CL (Mean) (converted)): 793 mL/min
clearance (male, human, plasma, iv, 112 mg, 112 mg [HD] single 9-hour IV infusion, read-out: CL (Median) (converted)): 785 mL/min
Cmax (male, human, plasma, iv, 112 mg, 112 mg [HD] single 9-hour IV infusion, read-out: Cmax (GM)): 266 ng/mL
Cmax (male, human, plasma, iv, 112 mg, 112 mg [HD] single 9-hour IV infusion, read-out: Cmax (Mean)): 268 ng/mL
Cmax (male, human, plasma, iv, 112 mg, 112 mg [HD] single 9-hour IV infusion, read-out: Cmax (Median)): 260 ng/mL
Vd (male, human, plasma, iv, 112 mg, 112 mg [HD] single 9-hour IV infusion, read-out: Vss (Mean)): 112 L
Vd (male, human, plasma, iv, 112 mg, 112 mg [HD] single 9-hour IV infusion, read-out: Vss (Median)): 112 L
Vd (male, human, plasma, iv, 112 mg, 112 mg [HD] single 9-hour IV infusion, read-out: Vz (Mean)): 223 L
Vd (male, human, plasma, iv, 112 mg, 112 mg [HD] single 9-hour IV infusion, read-out: Vz (Median)): 216 L
Tmax (male, human, plasma, iv, 112 mg, 112 mg [HD] single 9-hour IV infusion, read-out: tmax (Mean)): 7.88 h
Tmax (male, human, plasma, iv, 112 mg, 112 mg [HD] single 9-hour IV infusion, read-out: tmax (Median)): 9 h
half-life (male, human, plasma, after end of 9-h IV infusion, biphasic decline, read-out: Mean terminal half-life (t1/2z) (converted)): ~3 h
SMILES: COC(=O)N1CCC[C@H](NS(C)(=O)=O)[C@@H]1CO[C@H]1CC[C@@H](c2ccccc2)CC1 [Compound A, methyl (2R,3S)-3-((methylsulfonyl)amino)-2-(((cis-4-phenylcyclohexyl)oxy)methyl)piperidine-1-carboxylate]
Dose proportionality of systemic exposure (between 44 and 112 mg dose levels): approximately dose-proportionately; also recorded: approximately dose proportionately
